The source of these data is patent US20090018118A1, “HETEROCYCLIC COMPOUNDS” (priority 2005, published 2009).

The assay relates to cholesterol biosynthesis in HepG2 cells. The assay is described as follows: Metabolic labeling of HepG2 cells with [3H]acetate; radio-HPLC sterol profile (inhibition of cholesterol biosynthesis). It counts as cell-based, human. To be noted: HepG2; for activity at 10 µM: Homo sapiens, 24 h, Table I, sterol level normalized to normal medium (1.00), mean of 4 experiments; for activity at 10 µM / FF-MAS / cholesterol / desmosterol / lanosterol / lathosterol / zymosterol+7-dehydrocholesterol: 10 μM compound; for FF-MAS / cholesterol / desmosterol / lanosterol / lathosterol / zymosterol+7-dehydrocholesterol: Table II (arranged by sterol profile), normalized to normal medium (1.00); for all sterol levels (in words): 10 μM, relative to normal medium (unity). Here is the method:
In accordance with the aims of the invention, the effect of the novel compounds on inhibition of cholesterol biosynthesis is assessed. An ex vivo method of metabolic labeling of immortal human hepatocytes is employed. The radioactively labeled early precursor of cholesterol [3H]acetate is added to cells with or without addition of an active new compound.
An ex vivo method of metabolic labeling of immortal human hepatocytes is employed. The radioactively labeled early precursor of cholesterol [3H]acetate is added to cells with or without addition of an active compound.
Cell culture incubation with potential inhibitors of cholesterol biosynthesis and statins Human hepatoma cell line (HepG2-ATCC No. HB-8065) is split in the recommended ratio (1:2-3) into 75 cm^2 cell flasks using two flasks per experimental condition. Cells are incubated at 37° C. with 5% CO2 in Dulbeco's modified Eagle medium (DMEM high (Sigma)) containing 5% calf serum (Sigma) and 1% L-glutamine (Sigma). After 24-hours-culturing in the growth medium, the medium is replaced with the one supplemented with 10 μM concentration of a LK compound, potential inhibitor of cholesterol biosynthesis. 10 μM solution of atorvastatin, inhibitor of HMG-CoA reductase, serves as a positive control.
After 24 hours the growth medium is changed and [^3H]acetate (NEN™ Life Science Products) added in a concentration of 40 μCi per ml of the medium (400 μCi per flask). After 4 hours cells are harvested using 2 ml of trypsin (Sigma) and the cell pellet is resuspended in 1 ml of distilled water. Cells are homogenized using the freeze and thaw method. From cell homogenate sterols are extracted and protein concentration determined using the Bio-Rad reagent.
Homogenates are transferred into 4 ml glass vial and sterols are extracted in 3 ml of extraction solution (75% n-heptane: 25% isopropanol (vol./vol.)) with ergosterol as an internal standard. For better extraction 100 μl of 0.3M NaH2PO4 (pH=1.0) is added. Closed vials are vigorously shaken (1800 rpm) for 2 hours. After extraction procedure vials are centrifuged (2000 g, 10 min) and the organic phase is transferred to fresh conical glass tubes. Extraction procedure is repeated using 1 ml of extraction solution for 15 min. Organic phases are pooled. Primary extracts are dried in vacuum centrifuge, redissolved in 3 ml of n-heptane, and incubated for 10 min at room temperature with mild shaking. After centrifugation (10 min, 2000 g) extracts are transferred into fresh glass tubes and stored in dark and cold.
The organic phase is dried, reconstituted in mobile phase for reversed phase HPLC separation and loaded onto a-HPLC column, Prism-RPN, 5 μm, 250×4,6 mm running in 100% acetonitrile at 1.00 ml/min at 40° C. temperature. Scintillation liquid is added after UV detection at 30 ml/h, at room temperature, to evaluate tritium labeled sterols on a radio detector.
Sterols are determined by comparing the eluted peaks with runs of commercial standards of lanosterol, ergosterol, desmosterol, zymosterol, 7-dehydrocholesterol, lathosterol and cholesterol or laboratory standards (FF-MAS-4,4-Dimethylcholesta-8(9),14,24-triene-3β-ol- and T-MAS-4,4-Dimethylcholesta8(9),24,diene-3,6-ol, Laboratory of Reproductive Biology, The Juliane Marie Center for Children, Women and Reproduction, University Hospital of Copenhagen, DK-2100 Copenhagen, Denmark). Results were normalized on ergosterol quantity and protein concentration. Results are presented as a mean from 4 separated experiments.
The influence of a 10 μM solution of novel LK-substances on cholesterol biosynthesis in the assay on HepG2 cells is presented in Table I. Compounds are arranged according to the building blocks, three of them are 2-pyridineethanols, 2-pyridineethylpiperazines and pyridinemethylpiperazines.
Normal medium pertains to cell cultures without a compound of the invention. Its sterol levels were used for normalization. 10 μM solution of atorvastatin serves as a positive control.

Setting [1] is: read-out: zymosterol+7-dehydrocholesterol.

Structures can show the parent of a compound that is named as a salt. Where two headings read alike, the source gives them in different places.

As to `c1ccc(CCN2CCN(CCc3ccncc3)CC2)cc1` [LK-9118B, 1-Phenethyl-4-(2-(pyridine-4-yl)ethyl)piperazine], the FF-MAS came to 3.50, the cholesterol is recorded as 0.00, the desmosterol is listed as 0.47 and the lanosterol is given as 1.46. In addition, the lathosterol is 0.23 and the “zymosterol+7-dehydrocholesterol” value is reported as 0.90. Also, the activity at 10 µM (read-out: FF-MAS) was determined as 350%. In addition, for the setting “read-out: cholesterol”, the activity at 10 µM was 0%. Further, the activity at 10 µM (read-out: desmosterol) is 47%. Besides, the activity at 10 µM (read-out: lanosterol) was determined as 146%. For the same molecule, for the setting “read-out: lathosterol”, the activity at 10 µM is 23%. Moreover, under setting [1], the activity at 10 µM is 90%.

`Fc1ccc(CCN2CCN(CCc3ccncc3)CC2)cc1F` [LK-9131, 1-(3,4-di-Fluorophenethyl)-4-(2-(pyridin-4-yl)ethyl)piperazine trihydrobromide]: the “all sterol levels (in words)” value is “reduce all sterol levels below unity”, the FF-MAS is 0.72, the cholesterol turned out to be 0.00 and the desmosterol came to 0.01. The lanosterol is recorded as 0.69, the lathosterol was 0.05 and the “zymosterol+7-dehydrocholesterol” value stood at 0.09. For the setting “read-out: FF-MAS”, the activity at 10 µM turned out to be 72%. Also, for the setting “read-out: cholesterol”, the activity at 10 µM was found to be 0%. Also, the activity at 10 µM (read-out: desmosterol) worked out at 1%. Further, for the setting “read-out: lanosterol”, the activity at 10 µM came out at 69%. In addition, the activity at 10 µM (read-out: lathosterol) came out at 5%. Also, under setting [1], the activity at 10 µM stood at 9%.

On to `Clc1ccc(CCN2CCN(CCc3ccncc3)CC2)cc1Cl` [LK-9135, 1-(3,4-Dichlorophenethyl)-4-(2-(pyridin-4-yl)ethyl)piperazine trihydrobromide], for which the “all sterol levels (in words)” value was “reduce all sterol levels below unity”, the FF-MAS turned out to be 0.27, the cholesterol worked out at 0.00 and the desmosterol is 0.00. Besides, the lanosterol came to 0.43, the lathosterol amounted to 0.00 and the “zymosterol+7-dehydrocholesterol” value is given as 0.02. For the same molecule, the activity at 10 µM (read-out: FF-MAS) worked out at 27%. In addition, under “read-out: cholesterol”, the activity at 10 µM came to 0%. Besides, under “read-out: desmosterol”, the activity at 10 µM was found to be 0%. Moreover, under “read-out: lanosterol”, the activity at 10 µM is 43%. Moreover, the activity at 10 µM (read-out: lathosterol) was determined as 0%. Further, the activity at 10 µM under setting [1] is 2%.

In the case of `Clc1ccc(CCN2CCN(CCc3ccccn3)CC2)cc1Cl` [LK-9137, 1-(3,4-Dichlorophenethyl)-4-(2-(pyridin-2-yl)ethyl)piperazine trihydrobromide], the FF-MAS was 1.42, the cholesterol is 0.06, the desmosterol stood at 0.22 and the lanosterol is 0.63. In addition, the lathosterol amounted to 0.60 and the “zymosterol+7-dehydrocholesterol” value is on record as 1.41. Besides, the activity at 10 µM (read-out: FF-MAS) was found to be 142%. Further, the activity at 10 µM (read-out: cholesterol) stood at 6%. Moreover, the activity at 10 µM (read-out: desmosterol) is 22%. The activity at 10 µM (read-out: lanosterol) amounted to 63%. The activity at 10 µM (read-out: lathosterol) amounted to 60%. Under setting [1], the activity at 10 µM stood at 141%.

On to `Fc1ccc(CCN2CCN(CCc3ccccn3)CC2)cc1F` [LK-9138, 1-(3,4-Difluorophenethyl)-4-(2-(pyridin-2-yl)ethyl)piperazine trihydrobromide], for which the “all sterol levels (in words)” value is recorded as “reduce all sterol levels below unity”, the FF-MAS is 0.70, the cholesterol was found to be 0.01 and the desmosterol was found to be 0.07. Besides, the lanosterol is 0.25, the lathosterol came out at 0.08 and the “zymosterol+7-dehydrocholesterol” value stood at 0.21. Besides, the activity at 10 µM (read-out: FF-MAS) is 70%. Also, the activity at 10 µM (read-out: cholesterol) stood at 1%. Besides, for the setting “read-out: desmosterol”, the activity at 10 µM was found to be 7%. The activity at 10 µM (read-out: lanosterol) came out at 25%. For the same molecule, the activity at 10 µM (read-out: lathosterol) is 8%. Further, under setting [1], the activity at 10 µM came to 21%.

In turn, `Cc1ccc(C(O)CN2CCN(CCc3ccccc3)CC2)cn1` (stereo not shown) [LK-9139, 2-(4-Phenethylpiperazine-1-yl)-1-(6-methylpyridin-3-yl)ethanol trihydrobromide] had an FF-MAS of 1.19, a cholesterol of 0.01, a desmosterol of 0.14 and a lanosterol of 0.38. Further, the lathosterol turned out to be 0.15 and the “zymosterol+7-dehydrocholesterol” value is listed as 0.38. Besides, the activity at 10 µM (read-out: FF-MAS) is 119%. Also, the activity at 10 µM (read-out: cholesterol) was 1%. Moreover, for the setting “read-out: desmosterol”, the activity at 10 µM is 14%. In addition, the activity at 10 µM (read-out: lanosterol) worked out at 38%. Moreover, the activity at 10 µM (read-out: lathosterol) stood at 15%. Under setting [1], the activity at 10 µM came out at 38%.

As to `c1ccc(CCN2CCN(CCCc3cccnc3)CC2)cc1` [LK-9140, 1-Phenethyl-4-(3-(pyridine-3-yl)propyl)piperazine trihydrobromide], the “all sterol levels (in words)” value was “reduce all sterol levels below unity”, the FF-MAS is listed as 0.72, the cholesterol is given as 0.00 and the desmosterol is 0.01. Also, the lanosterol was found to be 0.24, the lathosterol is on record as 0.03 and the “zymosterol+7-dehydrocholesterol” value is on record as 0.15. For the same molecule, the activity at 10 µM (read-out: FF-MAS) amounted to 72%. Besides, the activity at 10 µM (read-out: cholesterol) worked out at 0%. Besides, under “read-out: desmosterol”, the activity at 10 µM is 1%. The activity at 10 µM (read-out: lanosterol) is 24%. Further, the activity at 10 µM (read-out: lathosterol) is 3%. In addition, the activity at 10 µM under setting [1] came out at 15%.

The molecule `OC(CN1CCN(c2ccc(F)cc2)CC1)c1cccnc1` (stereo not shown) [LK-9144, 2-(4-(4-Fluorophenyl)piperazine-1-yl)-1-(pyridine-3-yl)ethanol trihydrobromide] returned an FF-MAS of 0.99, a cholesterol of 0.09, a desmosterol of 0.05 and a lanosterol of 0.88. The lathosterol is given as 0.56 and the “zymosterol+7-dehydrocholesterol” value stood at 1.50. For the setting “read-out: FF-MAS”, the activity at 10 µM worked out at 99%. In addition, the activity at 10 µM (read-out: cholesterol) amounted to 9%. Also, the activity at 10 µM (read-out: desmosterol) amounted to 5%. The activity at 10 µM (read-out: lanosterol) amounted to 88%. Further, the activity at 10 µM (read-out: lathosterol) was 56%. For the same molecule, the activity at 10 µM under setting [1] was 150%.

The molecule `OC(CN1CCN(Cc2ccc(F)cc2)CC1)c1cccnc1` (stereo not shown) [LK-9148, 2-(4-(4-Fluorobenzyl)piperazine-1-yl)-1-(pyridine-3-yl)ethanol trihydrobromide] showed an FF-MAS of 1.25, a cholesterol of 0.14, a desmosterol of 0.38 and a lanosterol of 0.80. Besides, the lathosterol turned out to be 0.65 and the “zymosterol+7-dehydrocholesterol” value was determined as 1.44. For the same molecule, the activity at 10 µM (read-out: FF-MAS) stood at 125%. Further, the activity at 10 µM (read-out: cholesterol) amounted to 14%. Moreover, for the setting “read-out: desmosterol”, the activity at 10 µM was 38%. Further, the activity at 10 µM (read-out: lanosterol) amounted to 80%. Besides, the activity at 10 µM (read-out: lathosterol) came to 65%. For the same molecule, the activity at 10 µM under setting [1] amounted to 144%.
